19 compounds from patent publication US20250230147A1, “LACTAMS AS CBL-B INHIBITORS” (Genentech, Inc., priority 2021, published 2025) can be followed below.

pIC50: −log10 of the molar value. Counter-ions that a name gives are not always drawn. Like-named read-outs stand apart in the source and are kept apart here.

In one assay the target is Cbl-b (Homo sapiens (Human), UniProt Q13191). The assay is described as follows: Cbl-b LCK Ub TR-FRET assay (Cbl-b Lck HTRF). Format: biochemical. The essentials:
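TR-FRET (340 nm excitation, 615/665 nm emission) read after adding HA-ubiquitin–UBE2D2 thioester, anti-HA-D2 and streptavidin-Eu. Beforehand, compounds incubated 60 min with biotinylated Cbl-b, then 90 min with His-LCK and ATP (1 mM in 2× mix); IC50 from 10 concentrations, DMSO high and no-LCK low controls.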
A general note: TR-FRET usually uses a lanthanide donor and a delayed reading to cut background.

In a further assay the target is c-Cbl (Homo sapiens (Human), UniProt P22681). The assay can be described thus: C-Cbl LCK Ub TR-FRET assay (c-cbl Lck HTRF). In kind it is biochemical. Conditions: for (fold-selectivity): C-cbl Lck HTRF IC50 relative to Cbl-b Lck HTRF IC50. The essentials:
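Detection reagents added, brief spin, 20 min RT. IC50 fit normalized to no-LCK (low) and DMSO (high) controls.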

Sequence of Cbl-b (Q13191 40-426): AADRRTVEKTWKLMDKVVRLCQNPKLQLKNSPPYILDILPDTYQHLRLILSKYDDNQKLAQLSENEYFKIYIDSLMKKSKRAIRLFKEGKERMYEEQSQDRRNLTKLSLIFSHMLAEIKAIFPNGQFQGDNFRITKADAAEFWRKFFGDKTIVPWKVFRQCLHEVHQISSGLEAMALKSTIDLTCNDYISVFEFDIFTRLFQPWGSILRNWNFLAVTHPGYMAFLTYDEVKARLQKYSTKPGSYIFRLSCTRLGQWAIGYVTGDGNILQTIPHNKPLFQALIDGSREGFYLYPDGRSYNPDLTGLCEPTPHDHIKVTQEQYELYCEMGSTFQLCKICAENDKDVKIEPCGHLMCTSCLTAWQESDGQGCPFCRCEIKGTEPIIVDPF
Sequence of c-Cbl (P22681 47-435): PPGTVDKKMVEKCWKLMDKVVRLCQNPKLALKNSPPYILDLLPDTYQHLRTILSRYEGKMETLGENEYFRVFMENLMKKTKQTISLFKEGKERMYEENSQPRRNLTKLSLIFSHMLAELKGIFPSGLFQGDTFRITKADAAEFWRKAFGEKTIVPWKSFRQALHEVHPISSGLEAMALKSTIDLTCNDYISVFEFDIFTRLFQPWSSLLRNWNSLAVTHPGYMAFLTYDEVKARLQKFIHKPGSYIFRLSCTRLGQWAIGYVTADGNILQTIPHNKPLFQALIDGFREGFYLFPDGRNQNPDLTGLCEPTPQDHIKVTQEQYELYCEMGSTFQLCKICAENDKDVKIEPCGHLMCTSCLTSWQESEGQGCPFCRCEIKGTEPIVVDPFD

In the case of `CN1CC2CC(C1)N2Cc1cc2c(c(C(F)(F)F)c1)CN(c1cccc(C3(Cc4nncn4C)CC(F)(F)C3)c1)C2=O` [Compound 413, 2-(3-(3,3-difluoro-1-((4-methyl-4H-1,2,4-triazol-3-yl)methyl)cyclobutyl)phenyl)-6-((3-methyl-3,6-diazabicyclo[3.1.1]heptan-6-yl)methyl)-4-(trifluoromethyl)isoindolin-1-one formate], the pIC50 (in general, the negative decadic logarithm of the IC50, by convention in mol/L) is 7.25 against Cbl-b (formate) and 7.30 against c-Cbl (formate).
On Cbl-b, `COCC1(F)CN(Cc2cc3c(c(C(F)(F)F)c2)CN(c2cccc(C4([C@@H](F)c5nncn5C)COC4)c2)C3=O)C1` [Compound 135, (R)-2-(3-(3-(fluoro(4-methyl-4H-1,2,4-triazol-3-yl)methyl)oxetan-3-yl)phenyl)-6-((3-fluoro-3-(methoxymethyl)azetidin-1-yl)methyl)-4-(trifluoromethyl)isoindolin-1-one] showed a pIC50 of 7.02. At c-Cbl, the pIC50 is 6.74 and the “(fold-selectivity)” value is listed as 1.9x.
As for `Cn1cnnc1[C@H](F)C1(c2cccc(N3Cc4c(cc(CN)cc4C(F)(F)F)C3=O)c2)CC(F)(F)C1.O=CO` [Compound 393, (R)-6-(aminomethyl)-2-(3-(3,3-difluoro-1-(fluoro(4-methyl-4H-1,2,4-triazol-3-yl)methyl)cyclobutyl)phenyl)-4-(trifluoromethyl)isoindolin-1-one formate], the pIC50 against Cbl-b was 6.89. On c-Cbl, the pIC50 was 6.77 and the “(fold-selectivity)” value is given as “(1.3x)”.
Consider `COC(C)(C)CNCc1cc2c(c(C(F)(F)F)c1)CN(c1cccc(C3(Cc4nncn4C)CC(F)(F)C3)c1)C2=O` [Compound 373, 2-(3-(3,3-difluoro-1-((4-methy-4H-1,2,4-triazol-3-yl)methyl)cyclobutyl)phenyl)-6-(((2-methoxy-2-methylpropyl)amino)methyl)-4-(trifluoromethyl)isoindolin-1-one], for which, on Cbl-b, the pIC50 is 7.70. Besides, on c-Cbl, the pIC50 was 7.60 and the “(fold-selectivity)” value is recorded as “(1.3x)”.
The like results for `Cn1cnnc1[C@@H](F)C1(c2cccc(N3Cc4c(cc(CN5CCC5)cc4C(F)(F)F)C3=O)c2)CC(F)(F)C1` [Compound 398, (S)-6-(azetidin-1-ylmethyl)-2-(3-(3,3-difluoro-1-(fluoro(4-methyl-4H-1,2,4-triazol-3-yl)methyl)cyclobutyl)phenyl)-4-(trifluoromethyl)isoindolin-1-one] were, in that order, 6.85, 6.74 and “(1.3x)”.
`CC(C)[C@H]1CN(C)CCN1Cc1cc2c(c(C(F)(F)F)c1)CN(c1cccc(C3([C@@H](F)c4nncn4C4CCCCC4)COC3)c1)C2=O` [Compound 454, 2-(3-(3-((R)-(4-cyclohexyl-4H-1,2,4-triazol-3-yl)fluoromethyl)oxetan-3-yl)phenyl)-6-(((S)-2-isopropyl-4-methylpiperazin-1-yl)methyl)-4-(trifluoromethyl)isoindolin-1-one]: the pIC50 against Cbl-b is 4.96; at c-Cbl it was 5.21. Besides, the “(fold-selectivity)” value on c-Cbl is “(0.57x)”.
At Cbl-b, `CC(C)Nc1cc([C@H](C)Cc2nncn2C)cc(N2Cc3c(cc(CN4CCC5(CC5)C4)cc3C(F)(F)F)C2=O)n1.O=CO` [Compound 55, (R)-6-((5-azaspiro[2.4]heptan-5-yl)methyl)-2-(6-(isopropylamino)-4-(1-(4-methyl-4H-1,2,4-triazol-3-yl)propan-2-yl)pyridin-2-yl)-4-(trifluoromethyl)isoindolin-1-one formate] showed a pIC50 of 7.80. Moreover, on c-Cbl, the pIC50 is 7.59 and the “(fold-selectivity)” value is recorded as 1.6x.
In the case of `CCCCc1cc(C2(Cc3nncn3C)CCC2)cc(N2Cc3c(cc(CNC4(C)CCC4)cc3C(F)(F)F)C2=O)n1` [Compound 346, 2-(6-butyl-4-(1-((4-methyl-4H-1,2,4-triazol-3-yl)methyl)cyclobutyl)pyridin-2-yl)-6-(((1-methylcyclobutyl)amino)methyl)-4-(trifluoromethyl)isoindolin-1-one], the negative-log IC50 (pIC50) at Cbl-b was 7.96. Also, at c-Cbl, the pIC50 is 8.00 and the “(fold-selectivity)” value was “(0.92x)”.
On Cbl-b, `CN(C)CCNc1cc(C2(Cc3nncn3C)CCC2)cc(N2Cc3c(cc(CNC4(C)CCC4)cc3C(F)(F)F)C2=O)n1` [Compound 337, 2-(6-((2-(dimethylamino)ethyl)amino)-4-(1-((4-methyl-4H-1,2,4-triazol-3-yl)methyl)cyclobutyl)pyridin-2-yl)-6-(((1-methylcyclobutyl)amino)methyl)-4-(trifluoromethyl)isoindolin-1-one] had a pIC50 of 5.62. In addition, on c-Cbl, the negative logarithm of the IC50 (pIC50) was 5.96 and the “(fold-selectivity)” value was “(0.45x)”.
The like results for `CCc1cc(C2(Cc3nncn3C)CCC2)cc(N2Cc3c(cc(CNC4(C)CCC4)cc3C(F)(F)F)C2=O)n1` [Compound 361, 2-(6-ethyl-4-(1-((4-methyl-4H-1,2,4-triazol-3-yl)methyl)cyclobutyl)pyridin-2-yl)-6-(((1-methylcyclobutyl)amino)methyl)-4-(trifluoromethyl)isoindolin-1-one] were, in that order, 7.89, 8.02 and “(0.76x)”.
On to `CCC1(NCc2cc3c(c(C(F)(F)F)c2)CN(c2cccc(C4(Cc5nncn5C)CC(F)(F)C4)c2)C3=O)CCC1` [Compound 369, 2-(3-(3,3-difluoro-1-((4-methyl-4H-1,2,4-triazol-3-yl)methyl)cyclobutyl)phenyl)-6-(((1-ethylcyclobutyl)amino)methyl)-4-(trifluoromethyl)isoindolin-1-one formate], for which the pIC50 against Cbl-b was 7.77; against c-Cbl, 7.82.
`Cn1cnnc1CC1(c2cc(Cc3ccccc3)nc(N3Cc4c(cc(CNC5(C)CCC5)cc4C(F)(F)F)C3=O)c2)CCC1` [Compound 241, 2-(6-benzyl-4-(1-((4-methyl-4H-1,2,4-triazol-3-yl)methyl)cyclo-butyl)pyridin-2-yl)-6-(((1-methylcyclobutyl)amino)methyl)-4-(trifluoromethyl)isoindolin-1-one]: the pIC50 against Cbl-b was 7.68; against c-Cbl, 7.80. Also, the “(fold-selectivity)” value on c-Cbl was “(0.77x)”.
For `Cn1cnnc1CC1(c2cccc(N3Cc4c(cc(C5CCN5)cc4C(F)(F)F)C3=O)c2)COC1` (stereo not drawn) [Compound 13, 6-(azetidin-2-yl)-2-(3-(3-((4-methyl-4H-1,2,4-triazol-3-yl)methyl)oxetan-3-yl)phenyl)-4-(trifluoromethyl)isoindolin-1-one formate], the pIC50 on Cbl-b is 6.49; against c-Cbl, 6.27.
Turning to `Cc1ccnn1CC1(c2cccc(N3Cc4c(cc(CN5CCN(C)C[C@@H]5C(C)C)cc4C(F)(F)F)C3=O)c2)COC1` [Compound 263, (S)-6-((2-isopropyl-4-methylpiperazin-1-yl)methyl)-2-(3-(3-((5-methyl-1H-pyrazol-1-yl)methyl)oxetan-3-yl)phenyl)-4-(trifluoromethyl)isoindolin-1-one], the negative-log IC50 (pIC50) at Cbl-b was 7.35. Further, on c-Cbl, the pIC50 was 7.23 and the “(fold-selectivity)” value is listed as “(1.3x)”.
In the case of `Cn1cnnc1CC1(c2cccc(N3Cc4c(cc(CNC5(C)COC5)cc4C(F)(F)F)C3=O)c2)CC(F)(F)C1` [Compound 332, 2-(3-(3,3-difluoro-1-((4-methyl-4H-1,2,4-triazol-3-yl)methyl)cyclobutyl)phenyl)-6-(((3-methyloxetan-3-yl)amino)methyl)-4-(trifluoromethyl)isoindolin-1-one], the negative-log IC50 (pIC50) at Cbl-b is 7.55. Further, on c-Cbl, the pIC50 was 7.47 and the “(fold-selectivity)” value is on record as “(1.2x)”.
The like results for `CC[C@H]1CN(Cc2cc3c(c(C(F)(F)F)c2)CN(c2cccc(C4(Cc5nncn5C)CC(F)(F)C4)c2)C3=O)CCN1` [Compound 427, (S)-2-(3-(3,3-difluoro-1-((4-methyl-4H-1,2,4-triazol-3-yl)methyl)cyclobutyl)phenyl)-6-((3-ethylpiperazin-1-yl)methyl)-4-(trifluoromethyl)isoindolin-1-one] were, in that order, 7.68, 7.80 and “(0.76x)”.
The like results for `Cn1cnnc1[C@H](F)C1(c2cccc(N3Cc4c(cc(CN5CC6(CC6)C5)cc4C(F)(F)F)C3=O)c2)COC1` [Compound 78, (R)-6-((5-azaspiro[2.3]hexan-5-yl)methyl)-2-(3-(3-(fluoro(4-methyl-4H-1,2,4-triazol-3-yl)methyl)oxetan-3-yl)phenyl)-4-(trifluoromethyl)isoindolin-1-one] were, in that order, 7.28, 7.10 and 1.5x.
With `Cn1cnnc1CC1(c2cccc(N3Cc4c(cc(CNC5(C)CCC5)cc4C(F)F)C3=O)c2)CC(F)(F)C1` [Compound 250, 2-(3-(3,3-difluoro-1-((4-methyl-4H-1,2,4-triazol-3-yl)methyl)cyclo-butyl)phenyl)-4-(difluoromethyl)-6-(((1-methylcyclobutyl)amino)methyl)isoindolin-1-one], the pIC50 was 7.92 against Cbl-b and 8.03 against c-Cbl. For the same compound, the “(fold-selectivity)” value on c-Cbl was “(0.77x)”.
The compound `CC[C@H]1CN(C)CCN1Cc1cc2c(c(C(F)(F)F)c1)CN(c1cccc(C3(Cc4nncn4C)CC(F)(F)C3)c1)C2=O` [Compound 401, (S)-2-(3-(3,3-difluoro-1-((4-methyl-4H-1,2,4-triazol-3-yl)methyl)cyclobutyl)phenyl)-6-((2-ethyl-4-methylpiperazin-1-yl)methyl)-4-(trifluoromethyl)isoindolin-1-one] showed a pIC50 against Cbl-b of 7.54. Moreover, on c-Cbl, the pIC50 was 7.57 and the “(fold-selectivity)” value is on record as “(0.95x)”.
